In patent US10245272B2, “Transmembrane penetration enhancer” (priority 2010, dated 2019):

Test: Amount of clonazepam in blood, brain and skin after transdermal application (HPLC)
Conditions: rats
Protocol: In support of another embodiment of the present invention, a supporting experiment was conducted where the backs of 3 white male rats that weighed approximately 150 g. were shaved and the backs of the rats were shaved and washed with lukewarm water and approximately 25 cm^2 of the base of a transmembrane/transdermal penetration enhancer described in Example 14 was administered. The base contained 10 mg of clonazepam and after six hours from the time of the application, the rats were killed and blood, brain and skin were taken from the application area. The amount of clonazepam in the organs and tissues of the killed rats were identified by HPLC method.

[1] = base of Example 14 with 10 mg clonazepam on approx. 25 cm^2, six hours after application

SMILES: O=C1CN=C(c2ccccc2Cl)c2cc([N+](=O)[O-])ccc2N1 [clonazepam]
- amount of clonazepam in 1 cm^2 of the skin at the application area [1]: 0.04 ± 0.002 mg
- amount of clonazepam in 1 cm^3 of blood [1]: 0.043 ± 0.002 mg
- amount of clonazepam in 1 g of brain [1]: 0.016 ± 0.001 mg
- amount of penetrated/permeated clonazepam through 25 cm^2 application area (base of Example 14 with 10 mg clonazepam, during 6 hours): 60 % of applied amount
